Series [1] has as its system Single-donor human red blood cells. Kind of series: Hemolysis assay. The format is cell-based. As to conditions: hemolysis at 128 µg/ml, fold change relative to SySA-5. In a few lines: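 Peptides at 300 μg/ml (SySA library) or 128 μg/ml (SySA-5 optimization library) were incubated in triplicate with washed single-donor RBCs (1 × 10^9 cells/ml) for 3 h at 37 °C. Supernatant A540 was background-normalized to PBS and expressed relative to 1% Triton X-100 (100% hemolysis).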

Series [2] relates to Acinetobacter baumannii AB5075. As to conditions: for AB5075 MIC FBS: 100% fetal bovine serum; for AB5075 MIC MH: Mueller-Hinton.

Read-outs that look alike come from different tables or passages of the source. Bridge positions count the residues as written; N and C are the ends. Peptide text beside a SMILES is read from it.

`CC(C)C[C@@H]1NC(=O)[C@H](CO)NC(=O)[C@H](C(C)C)NC(=O)[C@H](CCCCN)NC(=O)[C@@H]2CSSC[C@H](NC(=O)[C@H](CCCNC(=N)N)NC(=O)[C@H](CC(C)C)NC(=O)[C@H](CCCNC(=N)N)NC(=O)[C@H](C(C)C)NC(=O)[C@H](CCCNC(=N)N)NC(=O)[C@@H](N)CSSC[C@@H](C(=O)O)NC(=O)[C@H](CCCNC(=N)N)NC1=O)C(=O)N[C@@H](CCCNC(=N)N)C(=O)N[C@@H](CCCNC(=N)N)C(=O)NCC(=O)N[C@@H](CCCNC(=N)N)C(=O)N2` [SySA-5.16] (H-CRVRLRCRRGRCKVSLRC-OH; disulfide 1-18, 7-12 (inferred); N-terminus and C-terminus assumed): the “Fold Change Hemolysis” value in series [1] turned out to be 1.3. Moreover, the “AB5075 MIC FBS” value in series [2] (replicate 1), in series [2] (replicate 2) and in series [2] (replicate 3) was greater than 128 µg/mL throughout. Moreover, the figures for the “AB5075 MIC MH” value in series [2] (replicate 1), in series [2] (replicate 2) and in series [2] (replicate 3) were 32 µg/mL, 64 µg/mL and 32 µg/mL, respectively.
For `CC(C)C[C@@H]1NC(=O)[C@H](CCCNC(=N)N)NC(=O)[C@H](C(C)C)NC(=O)[C@H](CCCNC(=N)N)NC(=O)[C@H](CC(C)C)NC(=O)[C@@H](N)CSSC[C@@H](C(=O)O)NC(=O)[C@H](C(C)C)NC(=O)[C@H](CCCNC(=N)N)NC(=O)[C@H](CC(C)C)NC(=O)[C@H](CCCNC(=N)N)NC(=O)[C@H](C(C)C)NC(=O)[C@H](CCCCN)NC(=O)[C@H](C(C)C)NC(=O)[C@@H]2CSSC[C@H](NC1=O)C(=O)N[C@@H](CC(N)=O)C(=O)N[C@@H](CCCNC(=N)N)C(=O)N[C@@H](CCCNC(=N)N)C(=O)N[C@@H](CCCNC(=N)N)C(=O)N2` [SySA-5.3] (H-CLRVRLCNRRRCVKVRLRVC-OH; disulfide 1-20, 7-12 (inferred); N-terminus and C-terminus assumed), the “Fold Change Hemolysis” value in series [1] worked out at 1.8. Besides, the “AB5075 MIC FBS” value in series [2] (replicate 1), in series [2] (replicate 2) and in series [2] (replicate 3) was 128 µg/mL in each case. Moreover, the “AB5075 MIC MH” value in series [2] (replicate 1), in series [2] (replicate 2) and in series [2] (replicate 3) was 8 µg/mL each time.
In the case of `CC(C)C[C@@H]1NC(=O)[C@H](CCCNC(=N)N)NC(=O)[C@H](C(C)C)NC(=O)[C@H](CCCCN)NC(=O)[C@H](C(C)C)NC(=O)[C@@H]2CSSC[C@H](NC(=O)[C@H](CC(C)C)NC(=O)[C@H](CCCNC(=N)N)NC(=O)[C@H](C(C)C)NC(=O)[C@H](CCCNC(=N)N)NC(=O)[C@@H](N)CSSC[C@@H](C(=O)O)NC(=O)[C@H](CCCNC(=N)N)NC1=O)C(=O)N[C@@H](CCCNC(=N)N)C(=O)N[C@@H](CCCNC(=N)N)C(=O)N[C@@H](CCCNC(=N)N)C(=O)N[C@@H](CCCNC(=N)N)C(=O)N2` [SySA-5.9] (H-CRVRLCRRRRCVKVRLRC-OH; disulfide 1-18, 6-11 (inferred); N-terminus and C-terminus assumed), the “Fold Change Hemolysis” value in series [1] is on record as 0.6. In addition, the “AB5075 MIC FBS” value in series [2] (replicate 1), in series [2] (replicate 2) and in series [2] (replicate 3) was greater than 128 µg/mL each time. The “AB5075 MIC MH” value in series [2] (replicate 1), in series [2] (replicate 2) and in series [2] (replicate 3) was 8 µg/mL in each case.

(Values after article PMC9833666, “Designing and identifying β-hairpin peptide macrocycles with antibiotic potential” (Science Advances, 2023).)
